Structures are written as SMILES.

Assay [1] concerns the target T1, Cecytb-2 (Cecytb-2-H6) (Caenorhabditis elegans, UniProt O16271).
T1 sequence (O16271 1-251): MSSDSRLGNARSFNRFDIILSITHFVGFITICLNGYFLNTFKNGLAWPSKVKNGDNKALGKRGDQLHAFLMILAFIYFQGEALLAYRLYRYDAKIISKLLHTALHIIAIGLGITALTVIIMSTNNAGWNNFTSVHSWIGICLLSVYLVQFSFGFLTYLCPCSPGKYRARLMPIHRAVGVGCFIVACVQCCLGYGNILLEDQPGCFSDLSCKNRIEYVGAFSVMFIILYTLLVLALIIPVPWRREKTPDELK
Description: stopped-flow heme reduction at […] nm. The format is biochemical. As to conditions: electron donor; pH 7.0, 1% octyl glucoside, about 25 °C. Further details: gene CELE_F39G3.5; full length, 251 residues, 28,127 Da native; expressed in Pichia pastoris GS115, purified from microsomes in octyl glucoside; Ser2, Ser3 at N-terminus; two b hemes.

For assay [2], the target named is T1, Cecytb-2 (Cecytb-2-H6). Description: pulse radiolysis, heme oxidation at […] nm. As to conditions: electron acceptor; 10 mM AsA present, pH 7.0, 1% octyl glucoside. The arrangement: gene CELE_F39G3.5.

As for `O=C1O[C@H]([C@@H](O)CO)C(O)=C1O` [AsA], on Cecytb-2 (Cecytb-2-H6) [1], the “stopped-flow heme reduction at 426 nm” value was “second-order rate constant (k1) for the heme reduction with AsA was estimated”. Regarding `[O]C1=C(O)[C@@H]([C@@H](O)CO)OC1=O` [MDA radical], the “pulse radiolysis, heme oxidation at 435 nm” value on Cecytb-2 (Cecytb-2-H6) [2] is given as “heme oxidation of Cecytb-2-H6 by the generated MDA radical”.

For the origin of these results see article PMC12563681, “Cecytb-2, a Cytochrome b561 Homolog, Functions as an Ascorbate-Specific Transmembrane Ferric Reductase at Intestinal Lumens of Caenorhabditis elegans” (Biomolecules, 2025).
